Values joined by “and” are separate entries in the source; they are usually repeats but may differ in a detail not shown here. Equal entries are not always repeated. Inconclusive results and toxic doses are left out. Cut-off read from the data, not from the text of the source: active = T/C of 150% or more; inactive = T/C below 125%.
System: L1210 leukemia ip in BDF1 mice, survival T/C
Experiment: NCI In Vivo Anticancer Drug Screen. Data for tumor model L1210 Leukemia (intraperitoneal) in B6D2F1 (BDF1) mice
Details: endpoint: mean survival time, higher = longer survival
How it was run: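 Transplantable tumor model; survival measured in treated vs vehicle control mice. Value = treated/control.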

[1] = dose: 100.0 mg/kg/injection, schedule: Q01DX009 (ip), vehicle: saline
[2] = dose: 100.0 mg/kg/injection, schedule: Q04DX002 (ip), vehicle: saline
[3] = dose: 200.0 mg/kg/injection, schedule: Q01DX009 (ip), vehicle: saline
[4] = dose: 200.0 mg/kg/injection, schedule: Q04DX002 (ip), vehicle: saline
[5] = dose: 400.0 mg/kg/injection, schedule: Q01DX009 (ip), vehicle: saline
[6] = dose: 400.0 mg/kg/injection, schedule: Q04DX002 (ip), vehicle: saline
[7] = dose: 100.0 mg/kg/injection, schedule: Q01DX009 (ip), vehicle: Klucel (hydroxypropylcellulose) (HPC)
[8] = dose: 100.0 mg/kg/injection, schedule: Q04DX002 (ip), vehicle: Klucel (hydroxypropylcellulose) (HPC)
[9] = dose: 200.0 mg/kg/injection, schedule: Q01DX009 (ip), vehicle: Klucel (hydroxypropylcellulose) (HPC)
[10] = dose: 400.0 mg/kg/injection, schedule: Q01DX009 (ip), vehicle: Klucel (hydroxypropylcellulose) (HPC)
[11] = dose: 100.0 mg/kg/injection, schedule: Q01DX001 (ip), vehicle: saline
[12] = dose: 200.0 mg/kg/injection, schedule: Q01DX001 (ip), vehicle: saline
[13] = dose: 400.0 mg/kg/injection, schedule: Q01DX001 (ip), vehicle: saline
[14] = dose: 100.0 mg/kg/injection, schedule: Q04DX003 (ip), vehicle: saline
[15] = dose: 200.0 mg/kg/injection, schedule: Q04DX003 (ip), vehicle: saline
[16] = dose: 25.0 mg/kg/injection, schedule: Q01DX009 (ip), vehicle: Klucel (hydroxypropylcellulose) (HPC)
[17] = dose: 50.0 mg/kg/injection, schedule: Q01DX009 (ip), vehicle: Klucel (hydroxypropylcellulose) (HPC)
[18] = dose: 100.0 mg/kg/injection, schedule: Q04DX003 (ip), vehicle: Klucel (hydroxypropylcellulose) (HPC)
[19] = dose: 50.0 mg/kg/injection, schedule: Q01DX001 (ip), vehicle: saline
[20] = dose: 100.0 mg/kg/injection, schedule: Q01DX001 (ip), vehicle: saline with Tween-80
[21] = dose: 200.0 mg/kg/injection, schedule: Q01DX001 (ip), vehicle: saline with Tween-80
[22] = dose: 400.0 mg/kg/injection, schedule: Q01DX001 (ip), vehicle: saline with Tween-80

Measured: T/C

CC(C)(C)C(=O)CC(=O)C(C)(C)C.CC(C)(C)C(=O)CC(=O)C(C)(C)C.CC(C)(C)C(=O)CC(=O)C(C)(C)C.[Sm]
inactive: dose: 100.0 mg/kg/injection, schedule: Q01DX005 (ip), vehicle: saline 112 % of control | [1] 106 % of control | [2] 92 % of control | dose: 200.0 mg/kg/injection, schedule: Q01DX005 (ip), vehicle: saline 109 % of control | [3] 103 % of control | [4] 95 % of control | dose: 400.0 mg/kg/injection, schedule: Q01DX005 (ip), vehicle: saline 98 % of control | [5] 98 % of control | [6] 103 % of control

CCc1ccccc1NC(=O)Nc1cc(C)ccn1
inactive: [7] 102 % of control | [8] 102 % of control | [9] 107 % of control | dose: 200.0 mg/kg/injection, schedule: Q04DX002 (ip), vehicle: Klucel (hydroxypropylcellulose) (HPC) 102 % of control | [10] 102 % of control | dose: 400.0 mg/kg/injection, schedule: Q04DX002 (ip), vehicle: Klucel (hydroxypropylcellulose) (HPC) 106 % of control

CCOP(=O)(Nc1c(Cl)cc2c(c1Cl)Cc1cc([N+](=O)[O-])ccc1-2)OCC
inactive: dose: 50.0 mg/kg/injection, schedule: Q01DX001 (ip), vehicle: carboxymethylcellulose (CMC) 103 % of control | dose: 100.0 mg/kg/injection, schedule: Q01DX001 (ip), vehicle: carboxymethylcellulose (CMC) 100 % of control | dose: 200.0 mg/kg/injection, schedule: Q01DX001 (ip), vehicle: carboxymethylcellulose (CMC) 100 % of control | dose: 400.0 mg/kg/injection, schedule: Q01DX001 (ip), vehicle: carboxymethylcellulose (CMC) 103 % of control

CCCC(OP(=S)(OCC(Cl)CC)OCC(Cl)CC)P(=O)(OCC(Cl)CC)OCC(Cl)CC (centres undefined)
inactive: [2] 106 % of control | [4] 106 % of control | [6] 106 % of control

COC(=O)CNC(=O)c1cccc([N+](=O)[O-])c1
inactive: [11] 96 % of control | [12] 94 % of control | [13] 97 % of control

C[N+](C)(C)CCCOC(=O)C1C2CC3OC(=O)C1C3C2 (centres undefined)
inactive: [14] 101 % of control | [15] 96 % of control

COc1cc2c(cc1OC)C1CCN3CCCC3N1CC2 (centres undefined)
inactive: [16] 102 % of control | [17] 96 % of control | [7] 98 % of control | [18] 96 % of control

N#Cc1ccccc1CCc1ccccc1
inactive: [19] 106 % of control | [11] 102 % of control | [12] 106 % of control | [13] 98 % of control

O=C([O-])c1ccccc1[I+]c1ccc(C2CCCCC2)cc1
inactive: [19] 100 % of control | [11] 100 % of control | [12] 105 % of control | [13] 103 % of control

CC1(C(Cl)Cl)C(=O)C=Cc2ccccc21 (centres undefined)
inactive: dose: 100.0 mg/kg/injection, schedule: Q04DX002 (ip), vehicle: saline with Tween-80 95 % of control | dose: 200.0 mg/kg/injection, schedule: Q04DX002 (ip), vehicle: saline with Tween-80 98 % of control | dose: 400.0 mg/kg/injection, schedule: Q04DX002 (ip), vehicle: saline with Tween-80 95 % of control

CC[N+]1(CC)CC[N+](CC)(CC)CC1 (tested in a mixture with another compound)
inactive: [2] 102 % of control | [4] 97 % of control | [6] 102 % of control

CCNC(=O)c1cc(NC(=O)c2ccc(C(=O)Nc3cc(C(=O)NCC)cc(C4=NCCN4)c3)cc2)cc(C2=NCCN2)c1
inactive: dose: 14.25 mg/kg/injection, schedule: Q01DX015 (ip), vehicle: water 101 % of control | dose: 28.5 mg/kg/injection, schedule: Q01DX015 (ip), vehicle: water 98 % of control | dose: 57.0 mg/kg/injection, schedule: Q01DX015 (ip), vehicle: water 116 % of control

CCN1C(C)C1C(C)C (centres undefined)
inactive: [16] 105 % of control | [17] 107 % of control | [7] 109 % of control | [18] 117 % of control

CN=C(NC)c1ccc(NC(=O)c2cc(C(=O)Nc3ccc(C(=NC)NC)cc3)cc([N+](=O)[O-])c2)cc1
inactive: dose: 2.0 mg/kg/injection, schedule: Q01DX Z (ip), vehicle: water 97 % of control | dose: 4.0 mg/kg/injection, schedule: Q01DX Z (ip), vehicle: water 100 % of control | dose: 7.5 mg/kg/injection, schedule: Q01DX Z (ip), vehicle: saline 100 % of control | dose: 7.5 mg/kg/injection, schedule: Q01DX Z (ip), vehicle: water 112 % of control | dose: 15.0 mg/kg/injection, schedule: Q01DX Z (ip), vehicle: saline 96 % of control and 110 % of control | dose: 15.0 mg/kg/injection, schedule: Q01DX Z (ip), vehicle: water 108 % of control

CCOC(=O)c1csc(CCNC(=O)c2ccccc2)n1
inactive: [11] 99 % of control | [1] 108 % of control | [14] 96 % of control | [12] 102 % of control | [3] 97 % of control | [15] 98 % of control | [13] 96 % of control | [5] 100 % of control | dose: 400.0 mg/kg/injection, schedule: Q04DX003 (ip), vehicle: saline 95 % of control

OC12c3ccccc3C(O)(c3ccccc31)C1c3ccccc3C2c2ccccc21
inactive: dose: 50.0 mg/kg/injection, schedule: Q04DX002 (ip), vehicle: Klucel (hydroxypropylcellulose) (HPC) 101 % of control | [8] 93 % of control

COC1C(=O)CCC2(CO2)C1(O)C1(C)OC1CC=C(C)C (centres undefined)
inactive: dose: 50.0 mg/kg/injection, schedule: Q01DX009 (ip), vehicle: saline with Tween-80 104 % of control | dose: 100.0 mg/kg/injection, schedule: Q01DX009 (ip), vehicle: saline with Tween-80 109 % of control | [14] 106 % of control | dose: 200.0 mg/kg/injection, schedule: Q01DX009 (ip), vehicle: saline with Tween-80 87 % of control | [15] 100 % of control

O=S(=O)(Cc1ccccc1)Nc1cccc(S(=O)(=O)OCc2ccccc2)c1
inactive: dose: 100.0 mg/kg/injection, schedule: Q01DX001 (ip), vehicle: Klucel (hydroxypropylcellulose) (HPC) 102 % of control | [7] 104 % of control | [18] 100 % of control | dose: 200.0 mg/kg/injection, schedule: Q01DX001 (ip), vehicle: Klucel (hydroxypropylcellulose) (HPC) 98 % of control | [9] 95 % of control | dose: 200.0 mg/kg/injection, schedule: Q04DX003 (ip), vehicle: Klucel (hydroxypropylcellulose) (HPC) 94 % of control | dose: 400.0 mg/kg/injection, schedule: Q01DX001 (ip), vehicle: Klucel (hydroxypropylcellulose) (HPC) 106 % of control | [10] 97 % of control | dose: 400.0 mg/kg/injection, schedule: Q04DX003 (ip), vehicle: Klucel (hydroxypropylcellulose) (HPC) 92 % of control

Cc1ccc(S(=O)(=O)N2CCOCCOCCOc3ccc4ccccc4c3-c3c(ccc4ccccc34)OCCOCC2)cc1
inactive: [20] 95 % of control | [21] 88 % of control | [22] 95 % of control

Cc1ccc([N+](=O)[O-])c2ccccc12
inactive: [20] 103 % of control | [21] 97 % of control | [22] 97 % of control

CC(C)(C)NC(=O)NCc1ccc(Cl)c(Cl)c1
inactive: [7] 92 % of control | [9] 93 % of control | [10] 98 % of control

CCOC(=O)C(Cc1ccccc1)N=NNc1nc[nH]c1C(N)=O (centres undefined)
inactive: dose: 375.0 mg/kg/injection, schedule: Q01DX001 (ip), vehicle: carboxymethylcellulose (CMC) 96 % of control | dose: 500.0 mg/kg/injection, schedule: Q01DX001 (ip), vehicle: carboxymethylcellulose (CMC) 106 % of control

Source: PubChem BioAssay AID248 (DTP/NCI, 2004)
